Test results: US11447493B2 (Kinnate Biopharma Inc., priority 2018, dated 2022)

Legend:
Assay in all cases: Radiometric protein kinase assay (33PanQinase), Assay Condition A (thiol containing)
Type in all cases: biochemical
CDK12 wt/CycK = CDK12 wt/CycK (Homo sapiens (Human), UniProt Q9NYV4); settings: thiol containing (1.2 mM DTT), ATP 0.3 μM
Experimental: (§1) The IC50 profile of test compounds was determined using three protein kinases.
(§2) The compounds were provided as pre-weighed powders in vials. The compounds were dissolved to 1×10^−02M by adding DMSO. 100 μl of each of the resulting stock solutions were transferred into column 2 of four 96 well “master plates”.
(§3) Prior to testing, the 1×10^−02M stock solutions in column 2 of the master plates were subjected to a serial, semi-logarithmic dilution using 100% DMSO as a solvent. […] Column 1 and 7 were filled with 100% DMSO as controls. Subsequently, 2×10 μl from each well of the serial diluted copy plates were aliquoted with a 96 channel pipettor into two identical sets of “compound dilution plates”.
(§4) In the process, 90 μl H2O were added to each well of a set of compound dilution plates. To minimize potential precipitation, the H2O was added to each plate only a few minutes before the transfer of the compound solutions into the assay plates. Each plate was shaken thoroughly, resulting in a “compound dilution plate/10% DMSO”.
(§5) For the assays, 5 μl solution from each well of the compound dilution plates/10% DMSO were transferred into the assay plates. The final volume of the assay was 50 μl. All compounds were tested at 10 final assay concentrations in the range from 1×10^−04M to 3×10^−09M, in singlicate. The final DMSO concentration in the reaction cocktails was 1% in all cases.
(§6) All protein kinases were expressed in Sf9 insect cells or in E. coli as recombinant GST-fusion proteins or His-tagged proteins, either as full-length or enzymatically active fragments. All kinases were produced from human cDNAs and purified by either GSH-affinity chromatography or immobilized metal. Affinity tags were removed from a number of kinases during purification. The purity of the protein kinases was examined by SDS-PAGE/Coomassie staining, the identity was checked by mass spectroscopy.
(§7) A radiometric protein kinase assay (^33PanQinase® Activity Assay) was used for measuring the kinase activity of the three protein kinases. All kinase assays were performed in 96-well FlashPlates™ from PerkinElmer (Boston, Mass., USA) in a 50 μl reaction volume. The reaction cocktail was pipetted in four steps in the following order: • 20 μl of assay buffer (standard buffer) • 5 μl of ATP solution (in H2O) • 5 μl of test compound (in 10% DMSO) • 20 μl enzyme/substrate mix
(§8) The reaction cocktails were incubated at 30° C. for 60 minutes. The reaction was stopped with 50 μl of 2% (v/v) H3PO4, plates were aspirated and washed two times with 200 μl 0.9% (w/v) NaCl. Incorporation of ^33Pi was determined with a microplate scintillation counter (Microbeta, Wallac). All assays were performed with a BeckmanCoulter/SAGIAN™ Core System.
(§9) The median value of the counts in column 1 (n=8) of each assay plate was defined as “low control”. This value reflects unspecific binding of radioactivity to the plate in the absence of a protein kinase but in the presence of the substrate. The median value of the counts in column 7 of each assay plate (n=8) was taken as the “high control”, i.e. full activity in the absence of any inhibitor. The difference between high and low control was taken as 100% activity.
(§10) As part of the data evaluation the low control value from a particular plate was subtracted from the high control value as well as from all 80 “compound values” of the corresponding plate. The residual activity (in %) for each well of a particular plate was calculated by using the following formula: Res. Activity (%)=100×[(cpm of compound−low control)/(high control−low control)]
(§11) The residual activities for each concentration and the compound IC50 values were calculated using Quattro Workflow V3.1.1 (Quattro Research GmbH, Munich, Germany). […] The fitting method used was a least-squares fit.

CDK7/CycH/MAT1 = CDK7/CycH/MAT1 (Homo sapiens (Human), UniProt P50613); settings: thiol containing (1.2 mM DTT), ATP 3.0 μM
Sequence of CDK7/CycH/MAT1 (P50613 whole entry): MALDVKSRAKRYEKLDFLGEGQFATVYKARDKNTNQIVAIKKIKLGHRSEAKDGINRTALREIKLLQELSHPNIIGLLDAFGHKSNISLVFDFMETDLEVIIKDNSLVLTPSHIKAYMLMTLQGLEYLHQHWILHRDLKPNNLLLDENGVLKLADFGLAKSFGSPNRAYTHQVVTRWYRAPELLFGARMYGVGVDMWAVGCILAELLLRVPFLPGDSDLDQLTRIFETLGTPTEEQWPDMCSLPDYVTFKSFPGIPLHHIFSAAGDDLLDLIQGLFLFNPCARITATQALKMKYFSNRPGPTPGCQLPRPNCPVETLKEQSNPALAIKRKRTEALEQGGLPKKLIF
Sequence of CDK7/CycH/MAT1 (P51946 whole entry partner): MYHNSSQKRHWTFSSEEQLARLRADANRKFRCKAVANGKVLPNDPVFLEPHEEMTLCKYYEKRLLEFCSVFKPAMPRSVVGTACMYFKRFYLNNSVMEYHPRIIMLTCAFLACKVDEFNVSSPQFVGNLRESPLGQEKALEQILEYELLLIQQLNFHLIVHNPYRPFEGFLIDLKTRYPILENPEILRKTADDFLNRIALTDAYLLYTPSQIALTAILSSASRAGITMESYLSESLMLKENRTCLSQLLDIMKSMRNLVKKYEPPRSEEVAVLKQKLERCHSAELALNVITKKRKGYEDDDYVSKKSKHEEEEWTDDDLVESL
Sequence of CDK7/CycH/MAT1 (P51948 whole entry partner): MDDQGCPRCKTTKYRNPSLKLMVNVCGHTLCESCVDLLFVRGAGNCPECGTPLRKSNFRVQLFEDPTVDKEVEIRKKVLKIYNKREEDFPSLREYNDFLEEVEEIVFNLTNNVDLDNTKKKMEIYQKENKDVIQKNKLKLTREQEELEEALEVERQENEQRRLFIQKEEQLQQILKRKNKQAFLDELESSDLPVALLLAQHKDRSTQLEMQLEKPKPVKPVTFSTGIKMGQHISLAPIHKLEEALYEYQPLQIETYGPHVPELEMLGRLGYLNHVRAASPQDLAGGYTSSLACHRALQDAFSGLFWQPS
Experimental: as §1, §2, §3, §4, §5, §6, §7, §8, §9, §10, §11

CDK2/CycA2 = CDK2/CycA2 (Homo sapiens (Human), UniProt P24941); settings: thiol containing (1.2 mM DTT), ATP 0.3 μM
Experimental: as §1, §2, §3, §4, §5, §6, §7, §8, §9, §10, §11

Sequence of CDK12 wt/CycK (Q9NYV4 whole entry): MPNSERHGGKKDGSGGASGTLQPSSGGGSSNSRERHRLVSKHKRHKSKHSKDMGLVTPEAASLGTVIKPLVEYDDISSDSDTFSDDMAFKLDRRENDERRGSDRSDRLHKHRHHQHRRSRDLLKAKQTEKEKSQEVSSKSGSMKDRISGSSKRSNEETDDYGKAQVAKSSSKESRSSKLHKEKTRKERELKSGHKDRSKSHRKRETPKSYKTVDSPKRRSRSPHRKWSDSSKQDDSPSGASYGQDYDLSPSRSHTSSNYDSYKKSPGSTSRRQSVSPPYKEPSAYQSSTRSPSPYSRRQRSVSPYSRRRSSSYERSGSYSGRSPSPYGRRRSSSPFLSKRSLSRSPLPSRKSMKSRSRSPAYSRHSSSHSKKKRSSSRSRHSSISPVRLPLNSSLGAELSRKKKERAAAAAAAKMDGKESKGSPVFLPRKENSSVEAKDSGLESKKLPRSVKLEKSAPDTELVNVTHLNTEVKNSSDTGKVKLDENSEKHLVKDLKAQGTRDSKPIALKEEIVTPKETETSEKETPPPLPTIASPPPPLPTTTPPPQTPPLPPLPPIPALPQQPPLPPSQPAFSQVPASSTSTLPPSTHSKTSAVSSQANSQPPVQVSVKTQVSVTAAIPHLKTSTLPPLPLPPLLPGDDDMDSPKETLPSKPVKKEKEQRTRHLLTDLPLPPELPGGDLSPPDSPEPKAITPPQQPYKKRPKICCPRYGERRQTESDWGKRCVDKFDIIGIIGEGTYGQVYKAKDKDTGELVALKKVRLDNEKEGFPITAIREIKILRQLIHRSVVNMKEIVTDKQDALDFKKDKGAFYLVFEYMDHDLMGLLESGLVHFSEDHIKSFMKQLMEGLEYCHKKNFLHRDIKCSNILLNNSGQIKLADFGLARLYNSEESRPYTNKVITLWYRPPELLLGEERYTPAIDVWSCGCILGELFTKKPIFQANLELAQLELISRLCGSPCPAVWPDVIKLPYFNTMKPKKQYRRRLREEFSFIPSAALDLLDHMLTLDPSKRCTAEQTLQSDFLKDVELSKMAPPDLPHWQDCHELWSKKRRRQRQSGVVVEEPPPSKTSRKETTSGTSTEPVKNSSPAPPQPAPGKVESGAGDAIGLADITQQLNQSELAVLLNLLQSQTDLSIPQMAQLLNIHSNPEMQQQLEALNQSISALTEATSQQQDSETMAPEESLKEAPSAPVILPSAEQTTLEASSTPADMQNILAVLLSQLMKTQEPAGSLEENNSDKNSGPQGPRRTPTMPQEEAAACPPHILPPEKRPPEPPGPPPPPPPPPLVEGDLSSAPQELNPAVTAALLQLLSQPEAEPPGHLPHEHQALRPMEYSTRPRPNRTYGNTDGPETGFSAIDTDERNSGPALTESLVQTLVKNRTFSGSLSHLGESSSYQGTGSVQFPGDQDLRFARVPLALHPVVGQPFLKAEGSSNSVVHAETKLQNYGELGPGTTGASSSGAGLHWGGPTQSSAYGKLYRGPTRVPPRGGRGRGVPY
Sequence of CDK12 wt/CycK (O75909 whole entry partner): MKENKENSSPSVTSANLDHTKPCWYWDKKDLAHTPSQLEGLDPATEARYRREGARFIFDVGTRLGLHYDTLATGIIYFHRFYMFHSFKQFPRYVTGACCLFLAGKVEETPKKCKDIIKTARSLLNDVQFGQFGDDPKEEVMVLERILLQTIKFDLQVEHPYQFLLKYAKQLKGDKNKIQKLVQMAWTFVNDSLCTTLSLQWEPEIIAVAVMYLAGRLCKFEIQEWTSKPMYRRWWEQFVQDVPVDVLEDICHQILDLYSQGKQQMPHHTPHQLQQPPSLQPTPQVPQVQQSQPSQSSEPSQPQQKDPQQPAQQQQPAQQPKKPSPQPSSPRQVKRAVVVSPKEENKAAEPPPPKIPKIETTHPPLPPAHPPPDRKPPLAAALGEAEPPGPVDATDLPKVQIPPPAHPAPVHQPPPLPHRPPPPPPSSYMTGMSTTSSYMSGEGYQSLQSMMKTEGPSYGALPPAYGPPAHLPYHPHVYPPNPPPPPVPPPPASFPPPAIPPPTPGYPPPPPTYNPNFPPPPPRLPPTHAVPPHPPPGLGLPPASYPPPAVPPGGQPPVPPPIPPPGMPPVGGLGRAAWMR

Structure (SMILES) | IC50 (CDK12 wt/CycK) [µM] | IC50 (CDK7/CycH/MAT1) [µM] | IC50 (CDK2/CycA2) [µM]
C=CC(=O)Nc1ccc(C(=O)N2CCC[C@@H](Nc3ncc4ccccc4n3)C2)cc1 [Example 1, (R)-N-(4-(3-(quinazolin-2-ylamino)piperidine-1-carbonyl)phenyl)acrylamide] | 1 to 10 |  | 
C=CC(=O)Nc1ccc(C(=O)N2CCC[C@@H](Nc3cc4ccccc4cn3)C2)cc1 [Example 2, (R)-N-(4-(3-(isoquinolin-3-ylamino)piperidine-1-carbonyl)phenyl)acrylamide] | 1 to 10 | 30 to 100 | 30 to 100
C=CC(=O)Nc1ccc(C(=O)N2CCC[C@@H](Nc3ncc4cc(Cl)ccc4n3)C2)cc1 [Example 3, (R)-N-(4-(3-((6-chloroquinazolin-2-yl)amino)piperidine-1-carbonyl)phenyl)acrylamide] | 1 to 10 | 30 to 100 | 30 to 100
C=CC(=O)Nc1ccc(C(=O)N2CCC[C@@H](Nc3ncc4cc(F)ccc4n3)C2)cc1 [Example 4, (R)-N-(4-(3-((6-fluoroquinazolin-2-yl)amino)piperidine-1-carbonyl)phenyl)acrylamide] | 1 to 10 | 30 to 100 | 30 to 100
C=CC(=O)Nc1ccc(C(=O)N2CCC[C@@H](Nc3ncc4ccc(F)cc4n3)C2)cc1 [Example 5, (R)-N-(4-(3-((7-fluoroquinazolin-2-yl)amino)piperidine-1-carbonyl)phenyl)acrylamide] | 1 to 10 | 30 to 100 | 30 to 100
C=CC(=O)Nc1ccc(C(=O)N2CCC[C@@H](Nc3ncc4ccc(OC)cc4n3)C2)cc1 [Example 6, (R)-N-(4-(3-((7-methoxyquinazolin-2-yl)amino)piperidine-1-carbonyl)phenyl)acrylamide] | 10 to 30 | 30 to 100 | 30 to 100
C=CC(=O)Nc1ccc(C(=O)N2CCC[C@@H](Nc3ncc4cc(OC)ccc4n3)C2)cc1 [Example 7, (R)-N-(4-(3-((6-methoxyquinazolin-2-yl)amino)piperidine-1-carbonyl)phenyl)acrylamide] | 30 to 100 | 30 to 100 | 30 to 100
C=CC(=O)Nc1ccc(C(=O)N2CCC[C@@H](Nc3ncc4cc(C)ccc4n3)C2)cc1 [Example 8, (R)-N-(4-(3-((6-methylquinazolin-2-yl)amino)piperidine-1-carbonyl)phenyl)acrylamide] | 10 to 30 | 30 to 100 | 30 to 100
C=CC(=O)Nc1ccc(C(=O)N2CCC[C@@H](Nc3ncc4ccc(C)cc4n3)C2)cc1 [Example 9, (R)-N-(4-(3-((7-methylquinazolin-2-yl)amino)piperidine-1-carbonyl)phenyl)acrylamide] | 10 to 30 | 30 to 100 | 30 to 100
C=CC(=O)Nc1ccc(C(=O)N2CCC[C@@H](Nc3ncc4ccc(Cl)cc4n3)C2)cc1 [Example 10, (R)-N-(4-(3-((7-chloroquinazolin-2-yl)amino)piperidine-1-carbonyl)phenyl)acrylamide] | 1 to 10 | 30 to 100 | 30 to 100
C=CC(=O)Nc1ccc(C(=O)N2CCC[C@@H](Nc3ncc4ccc(S(C)(=O)=O)cc4n3)C2)cc1 [Example 11, (R)-N-(4-(3-((7-(methylsulfonyl)quinazolin-2-yl)amino)piperidine-1-carbonyl)phenyl)acrylamide] | 1 to 10 | 30 to 100 | 10 to 30
C=CC(=O)Nc1ccc(C(=O)N2CCC[C@@H](Nc3ncc4ccc(C(N)=O)cc4n3)C2)cc1 [Example 13, (R)-2-((1-(4-acrylamidobenzoyl)piperidin-3-yl)amino)quinazoline-7-carboxamide] | 0.1 to 1 | 10 to 30 | 1 to 10
C=CC(=O)Nc1ccc(C(=O)N2CCC[C@@H](Nc3ncc4ccc(C(=O)O)cc4n3)C2)cc1 [Example 14, (R)-2-((1-(4-acrylamidobenzoyl)piperidin-3-yl)amino)quinazoline-7-carboxylic acid] | 0.1 to 1 | 10 to 30 | 1 to 10
C=CC(=O)Nc1ccc(C(=O)N2CCC[C@@H](Nc3ncc4ccc(=O)n(C(C)C)c4n3)C2)cc1 [Example 15, (R)-N-(4-(3-((8-isopropyl-7-oxo-7,8-dihydropyrido[2,3-d]pyrimidin-2-yl)amino)piperidine-1-carbonyl)phenyl)acrylamide] | 1 to 10 | 30 to 100 | 10 to 30
C=CC(=O)Nc1ccc(C(=O)N2CCC[C@@H](Nc3ncc4ccc(=O)[nH]c4n3)C2)cc1 [Example 16, (R)-N-(4-(3-((7-oxo-7,8-dihydropyrido[2,3-d]pyrimidin-2-yl)amino)piperidine-1-carbonyl)phenyl)acrylamide] | 10 to 30 | 30 to 100 | 30 to 100
CCC(=O)Nc1ccc(C(=O)N2CCC[C@@H](Nc3ncc4ccccc4n3)C2)cc1 [Example 17, (R)-N-(4-(3-(quinazolin-2-ylamino)piperidine-1-carbonyl)phenyl)propionamide] | 30 to 100 | 30 to 100 | 30 to 100
CCC(=O)Nc1ccc(C(=O)N2CCC[C@@H](Nc3cc4ccccc4cn3)C2)cc1 [Example 18, (R)-N-(4-(3-(isoquinolin-3-ylamino)piperidine-1-carbonyl)phenyl)propionamide] | 10 to 30 | 30 to 100 | 30 to 100
CCC(=O)Nc1ccc(C(=O)N2CCC[C@@H](Nc3ncc4cc(Cl)ccc4n3)C2)cc1 [Example 19, (R)-N-(4-(3-((6-chloroquinazolin-2-yl)amino)piperidine-1-carbonyl)phenyl)propionamide] | 30 to 100 | 30 to 100 | 30 to 100
C=CC(=O)Nc1ccc(C(=O)N2CC[C@@H](Nc3ncc4ccc(C(=O)NC)cc4n3)C2)cc1 [Example 58, (R)-2-((1-(4-acrylamidobenzoyl)pyrrolidin-3-yl)amino)-N-methylquinazoline-7-carboxamide] |  | 0.1 to 1 | 
C=CC(=O)Nc1ccc(C(=O)N2CC[C@@H](Nc3ncc4ccccc4n3)C2)cn1 [Example 67, (R)—N-(5-(3-(quinazolin-2-ylamino)pyrrolidine-1-carbonyl)pyridin-2-yl)acrylamide] |  | 0.1 to 1 | 
C=CC(=O)Nc1ccc(C(=O)N2CC[C@@H](Nc3ncc4cc(F)ccc4n3)C2)cc1F [Example 69, (R)—N-(2-fluoro-4-(3-((6-fluoroquinazolin-2-yl)amino)pyrrolidine-1-carbonyl)phenyl)acrylamide] | ≤ 0.1 |  | 1 to 10
C#CC(=O)Nc1ccc(C(=O)N2CC[C@@H](Nc3ncc4ccccc4n3)C2)cc1 [Example 70, (R)—N-(4-(3-(quinazolin-2-ylamino)pyrrolidine-1-carbonyl)phenyl)propiolamide] | ≤ 0.1 |  | 0.1 to 1
C=CC(=O)Nc1ccc(C(=O)N2CC[C@@H](Nc3ncc4ccccc4n3)C2)cc1OC [Example 71, (R)—N-(2-methoxy-4-(3-(quinazolin-2-ylamino)pyrrolidine-1-carbonyl)phenyl)acrylamide] | ≤ 0.1 |  | 
C=CC(=O)Nc1ccc(C(=O)N2CC[C@@H](Nc3ncc4ccccc4n3)C2)c(OC)c1 [Example 73, (R)—N-(3-methoxy-4-(3-(quinazolin-2-ylamino)pyrrolidine-1-carbonyl)phenyl)acrylamide] | 0.1 to 1 |  | 
C=CC(=O)N1CCCc2cc(C(=O)N3CC[C@@H](Nc4ncc5ccccc5n4)C3)ccc21 [Example 79, (R)-1-(6-(3-(quinazolin-2-ylamino)pyrrolidine-1-carbonyl)-3,4-dihydroquinolin-1(2H)-yl)prop-2-en-1-one] | ≤ 0.1 |  | 1 to 10
